Source: ChEMBL document CHEMBL1155915, “Anticonvulsant activity of some xanthone derivatives” (Bioorg Med Chem, 2008)
Calls of active or inactive are those of the source.

Legend:
[1] = species on record: Mus musculus; experiment: Protective index, ratio of TD50 for mouse by rotarod test to ED50 for mouse by scMET test; assay type: functional
[2] = species on record: Mus musculus; experiment: Protective index, ratio of TD50 for mouse by rotarod test to ED50 for mouse by MES test; assay type: functional
[3] = system: Mus musculus; experiment: Anticonvulsant activity against scMet-induced seizures in ip dosed mouse; assay type: functional
[4] = system: Mus musculus; experiment: Anticonvulsant activity against maximal electroshock-induced seizures in ip dosed mouse; assay type: functional
[5] = system: Mus musculus; experiment: Anticonvulsant activity against maximal electroshock-induced seizures in mouse at 100 mg/kg, ip after 0.5 hrs; assay type: functional, organism-based; parameters: dose 100 mg/kg
[6] = system: Rattus norvegicus; experiment: Anticonvulsant activity against maximal electroshock-induced seizures in rat at 30 mg/kg, po after 2 hrs; assay type: functional, organism-based; parameters: dose 30 mg/kg
[7] = system: Mus musculus; experiment: Anticonvulsant activity against maximal electroshock-induced seizures in mouse at 30 mg/kg, ip after 0.5 hrs; assay type: functional, organism-based; parameters: dose 30 mg/kg
[8] = system: Rattus norvegicus; experiment: Anticonvulsant activity against maximal electroshock-induced seizures in rat at 30 mg/kg, po after 0.5 hrs; assay type: functional, organism-based; parameters: dose 30 mg/kg
[9] = system: Mus musculus; experiment: Anticonvulsant activity against scMet-induced seizures in mouse at 300 mg/kg, ip after 4 hrs; assay type: functional, organism-based; parameters: dose 300 mg/kg
[10] = system: Rattus norvegicus; experiment: Neurotoxicity in rat at 30 mg/kg, po after 1 hr by rotarod test; assay type: toxicity, organism-based; parameters: dose 30 mg/kg, route oral; conditions: in vivo
[11] = system: Mus musculus; experiment: Anticonvulsant activity against maximal electroshock-induced seizures in mouse at 300 mg/kg, ip after 4 hrs; assay type: functional, organism-based; parameters: dose 300 mg/kg
[12] = system: Rattus norvegicus; experiment: Anticonvulsant activity against maximal electroshock-induced seizures in rat at 30 mg/kg, po after 1 hr; assay type: functional, organism-based; parameters: dose 30 mg/kg
[13] = system: Mus musculus; experiment: Neurotoxicity in mouse at 30 mg/kg, ip after 4 hrs by rotarod test; assay type: toxicity, organism-based; parameters: dose 30 mg/kg, route intraperitoneal; conditions: in vivo
[14] = system: Rattus norvegicus; experiment: Neurotoxicity in rat at 30 mg/kg, po after 4 hrs by rotarod test; assay type: toxicity, organism-based; parameters: dose 30 mg/kg, route oral; conditions: in vivo
[15] = system: Mus musculus; experiment: Anticonvulsant activity against maximal electroshock-induced seizures in mouse at 30 mg/kg, ip after 4 hrs; assay type: functional, organism-based; parameters: dose 30 mg/kg
[16] = system: Mus musculus; experiment: Neurotoxicity in mouse at 30 mg/kg, ip after 0.5 hrs by rotarod test; assay type: toxicity, organism-based; parameters: dose 30 mg/kg, route intraperitoneal; conditions: in vivo
[17] = system: Mus musculus; experiment: Anticonvulsant activity against scMet-induced seizures in mouse at 30 mg/kg, ip after 4 hrs; assay type: functional, organism-based; parameters: dose 30 mg/kg
[18] = system: Mus musculus; experiment: Anticonvulsant activity against scMet-induced seizures in mouse at 300 mg/kg, ip after 0.5 hrs; assay type: functional, organism-based; parameters: dose 300 mg/kg
[19] = system: Rattus norvegicus; experiment: Neurotoxicity in rat at 30 mg/kg, po after 0.25 hrs by rotarod test; assay type: toxicity, organism-based; parameters: dose 30 mg/kg, route oral; conditions: in vivo
[20] = system: Mus musculus; experiment: Anticonvulsant activity against scMet-induced seizures in mouse at 100 mg/kg, ip after 4 hrs; assay type: functional, organism-based; parameters: dose 100 mg/kg
[21] = system: Rattus norvegicus; experiment: Neurotoxicity in rat at 30 mg/kg, po after 2 hrs by rotarod test; assay type: toxicity, organism-based; parameters: dose 30 mg/kg, route oral; conditions: in vivo
[22] = system: Mus musculus; experiment: Anticonvulsant activity against maximal electroshock-induced seizures in mouse at 100 mg/kg, ip after 4 hrs; assay type: functional, organism-based; parameters: dose 100 mg/kg
[23] = system: Mus musculus; experiment: Anticonvulsant activity against maximal electroshock-induced seizures in mouse at 300 mg/kg, ip after 0.5 hrs; assay type: functional, organism-based; parameters: dose 300 mg/kg
[24] = system: Rattus norvegicus; experiment: Neurotoxicity in rat at 30 mg/kg, po after 0.5 hrs by rotarod test; assay type: toxicity, organism-based; parameters: dose 30 mg/kg, route oral; conditions: in vivo
[25] = system: Mus musculus; experiment: Neurotoxicity in mouse at 100 mg/kg, ip after 4 hrs by rotarod test; assay type: toxicity, organism-based; parameters: dose 100 mg/kg, route intraperitoneal; conditions: in vivo
[26] = system: Mus musculus; experiment: Anticonvulsant activity against scMet-induced seizures in mouse at 100 mg/kg, ip after 0.5 hrs; assay type: functional, organism-based; parameters: dose 100 mg/kg
[27] = system: Mus musculus; experiment: Anticonvulsant activity against scMet-induced seizures in mouse at 30 mg/kg, ip after 0.5 hrs; assay type: functional, organism-based; parameters: dose 30 mg/kg
[28] = Displacement of [3H]nitrendipine from voltage-dependent calcium channel in rat brain cortex by scintillation counting; assay type: tissue-based
[29] = system: Rattus norvegicus; experiment: Anticonvulsant activity against maximal electroshock-induced seizures in rat at 30 mg/kg, po after 0.25 hrs; assay type: functional, organism-based; parameters: dose 30 mg/kg
[30] = system: Rattus norvegicus; experiment: Anticonvulsant activity against maximal electroshock-induced seizures in rat at 30 mg/kg, po after 4 hrs; assay type: functional, organism-based; parameters: dose 30 mg/kg
[31] = system: Mus musculus; experiment: Neurotoxicity in mouse at 300 mg/kg, ip after 4 hrs by rotarod test; assay type: toxicity, organism-based; parameters: dose 300 mg/kg, route intraperitoneal; conditions: in vivo
[32] = system: Mus musculus; experiment: Neurotoxicity in mouse at 100 mg/kg, ip after 0.5 hrs by rotarod test; assay type: toxicity, organism-based; parameters: dose 100 mg/kg, route intraperitoneal; conditions: in vivo
[33] = Displacement of [3H]flunitrazepam from benzodiazepine receptor in rat brain cortex by scintillation counting; assay type: tissue-based
[34] = system: Mus musculus; experiment: Neurotoxicity in mouse at 100 mg/kg, ip after 1 hr by rotarod test; assay type: toxicity, organism-based; parameters: dose 100 mg/kg, route intraperitoneal; conditions: in vivo
[35] = system: Mus musculus; experiment: Neurotoxicity in mouse at 300 mg/kg, ip after 0.5 hrs by rotarod test; assay type: toxicity, organism-based; parameters: dose 300 mg/kg, route intraperitoneal; conditions: in vivo
[36] = system: Mus musculus; experiment: Neurotoxicity in mouse at 30 mg/kg, ip after 1 hr by rotarod test; assay type: toxicity, organism-based; parameters: dose 30 mg/kg, route intraperitoneal; conditions: in vivo
[37] = Neurotoxicity in ip dosed mouse by rotarod test; assay type: toxicity, organism-based; conditions: in vivo
[38] = system: Mus musculus; experiment: Anticonvulsant activity against maximal electroshock-induced seizures in mouse at 10 mg/kg, ip after 0.5 hrs; assay type: functional, organism-based; parameters: dose 10 mg/kg
[39] = system: Mus musculus; experiment: Anticonvulsant activity against maximal electroshock-induced seizures in mouse at 3 mg/kg, ip after 0.5 hrs; assay type: functional, organism-based; parameters: dose 3 mg/kg
[40] = system: Mus musculus; experiment: Neurotoxicity in mouse at 3 mg/kg, ip after 0.5 hrs by rotarod test; assay type: toxicity, organism-based; parameters: dose 3 mg/kg, route intraperitoneal; conditions: in vivo
[41] = system: Mus musculus; experiment: Neurotoxicity in mouse at 10 mg/kg, ip after 0.5 hrs by rotarod test; assay type: toxicity, organism-based; parameters: dose 10 mg/kg, route intraperitoneal; conditions: in vivo

O=C1NC(=O)C(c2ccccc2)(c2ccccc2)N1 [PHENYTOIN]
> 50 mg/kg: ED50 [3]
6.6: PI [2]
<0.9: PI [1]
6.48 mg/kg: ED50 [4]

CC[C@@H](CO)NCCOc1c(C)cccc1C
7.57 mg/kg: ED50 [4]
4.55: PI [2]

CC(CCl)NCc1ccc2oc3cc(Cl)ccc3c(=O)c2c1.Cl (racemic)
inactive: Activity [5] | Activity [6] | Activity [7] | Activity [8] | Activity [9] | Activity [11] | Activity [12] | Activity [15] | Activity [17] | Activity [18] | Activity [20] | Activity [22] | Activity [23] | Activity [26] | Activity [27]
Not Active: Neurotoxicity [10] | Neurotoxicity [13] | Neurotoxicity [14] | Neurotoxicity [16] | Neurotoxicity [19] | Neurotoxicity [21] | Neurotoxicity [24] | Neurotoxicity [25]

NC(=O)N1c2ccccc2C=Cc2ccccc21 [CARBAMAZEPINE]
> 50 mg/kg: ED50 [3]
<1: PI [1]
1200 nM: EC50 [28]

CC(C)(CCO)NCc1ccc2oc3cc(Cl)ccc3c(=O)c2c1
inactive: Activity [6] | Activity [7] | Activity [29] | Activity [30] | Activity [8] | Activity [9] | Activity [11] | Activity [12] | Activity [15] | Activity [17] | Activity [18] | Activity [20] | Activity [22] | Activity [26] | Activity [27]
active: Activity [23]
Not Active: Neurotoxicity [10] | Neurotoxicity [31] | Neurotoxicity [13] | Neurotoxicity [14] | Neurotoxicity [32] | Neurotoxicity [19] | Neurotoxicity [21] | Neurotoxicity [24] | Neurotoxicity [25]

CN1C(=O)CN=C(c2ccccc2)c2cc(Cl)ccc21 [DIAZEPAM]
700 nM: EC50 [33]

Cl.O=c1c2ccc(Cl)cc2oc2ccc(CNCCCO)cc12
inactive: Activity [5] | Activity [6] | Activity [7] | Activity [29] | Activity [30] | Activity [8] | Activity [9] | Activity [11] | Activity [12] | Activity [15] | Activity [17] | Activity [18] | Activity [20] | Activity [22] | Activity [26] | Activity [27]
Not Active: Neurotoxicity [34] | Neurotoxicity [10] | Neurotoxicity [13] | Neurotoxicity [14] | Neurotoxicity [16] | Neurotoxicity [19] | Neurotoxicity [21] | Neurotoxicity [24] | Neurotoxicity [25] | Neurotoxicity [36]
active: Activity [23]
Neurotoxic: Neurotoxicity [31] | Neurotoxicity [35]

C[C@@H](CO)NCc1ccc2oc3cc(Cl)ccc3c(=O)c2c1
< 500 mg/kg: TD50 [37]
<6.851: PI [2]
7600 nM: EC50 [28]
73 mg/kg: ED50 [4]
Not Active: Neurotoxicity [10] | Neurotoxicity [31] | Neurotoxicity [13] | Neurotoxicity [14] | Neurotoxicity [16] | Neurotoxicity [32] | Neurotoxicity [19] | Neurotoxicity [21] | Neurotoxicity [24] | Neurotoxicity [25]
inactive: Activity [6] | Activity [7] | Activity [8] | Activity [9] | Activity [12] | Activity [15] | Activity [17] | Activity [18] | Activity [20] | Activity [27]
> 350 mg/kg: ED50 [3]
active: Activity [11] | Activity [23]
30000 nM: EC50 [33]

CC[C@@H](CO)NCc1ccc2oc3cc(Cl)ccc3c(=O)c2c1
Not Active: Neurotoxicity [10] | Neurotoxicity [13] | Neurotoxicity [14] | Neurotoxicity [16] | Neurotoxicity [19] | Neurotoxicity [21] | Neurotoxicity [24]
Neurotoxic: Neurotoxicity [31] | Neurotoxicity [35]
inactive: Activity [6] | Activity [7] | Activity [29] | Activity [8] | Activity [9] | Activity [15] | Activity [17] | Activity [18] | Activity [20] | Activity [22] | Activity [26] | Activity [27]
active: Activity [5] | Activity [11] | Activity [23]

CCCC(CCC)C(=O)[O-].[Na+] [VALPROATE SODIUM]
483 mg/kg: TD50 [37]
290 mg/kg: ED50 [3]

C[C@H](CO)NCc1ccc2oc3cc(Cl)ccc3c(=O)c2c1
483 mg/kg: TD50 [37]
inactive: Activity [7] | Activity [29] | Activity [8] | Activity [9] | Activity [12] | Activity [15] | Activity [17] | Activity [18] | Activity [20] | Activity [22] | Activity [26] | Activity [27]
Not Active: Neurotoxicity [10] | Neurotoxicity [31] | Neurotoxicity [13] | Neurotoxicity [14] | Neurotoxicity [16] | Neurotoxicity [19] | Neurotoxicity [21] | Neurotoxicity [24] | Neurotoxicity [25]
> 500 mg/kg: ED50 [3]
77.4 mg/kg: ED50 [4]
6.23: PI [2]
active: Activity [11] | Activity [23]
<0.96: PI [1]

COC(=O)C1=C(C)NC(C)=C(C(=O)OC)C1c1ccccc1[N+](=O)[O-] [NIFEDIPINE]
1 nM: EC50 [28]

CCC(O)CNCc1ccc2oc3cc(Cl)ccc3c(=O)c2c1 (racemic)
inactive: Activity [38] | Activity [9] | Activity [39] | Activity [15] | Activity [17] | Activity [18] | Activity [20] | Activity [26] | Activity [27]
Neurotoxic: Neurotoxicity [31] | Neurotoxicity [35]
active: Activity [5] | Activity [7] | Activity [11] | Activity [22] | Activity [23]
Not Active: Neurotoxicity [10] | Neurotoxicity [13] | Neurotoxicity [14] | Neurotoxicity [19] | Neurotoxicity [21] | Neurotoxicity [40] | Neurotoxicity [41] | Neurotoxicity [24]
